The target of the test is T1, PA0285_317-760 (Pseudomonas aeruginosa, UniProt Q9I6K5).
T1 construct: gene PA0285; GGDEF/EAL tandem domains, residues 317-760 of 760; transmembrane and PAS domains absent; GST tag cleaved by thrombin; E. coli BL21(DE3); monomer (copies word: monomeric)
Briefly: HDX-MS. It counts as binding. The settings on record: 2.5 mM GTP, 1 mM MgCl2, 1 mM MnCl2, pH 7.5, 25 °C; site: GGDEF domain; no diguanylate cyclase turnover.

T1 sequence (Q9I6K5 entry or part of it): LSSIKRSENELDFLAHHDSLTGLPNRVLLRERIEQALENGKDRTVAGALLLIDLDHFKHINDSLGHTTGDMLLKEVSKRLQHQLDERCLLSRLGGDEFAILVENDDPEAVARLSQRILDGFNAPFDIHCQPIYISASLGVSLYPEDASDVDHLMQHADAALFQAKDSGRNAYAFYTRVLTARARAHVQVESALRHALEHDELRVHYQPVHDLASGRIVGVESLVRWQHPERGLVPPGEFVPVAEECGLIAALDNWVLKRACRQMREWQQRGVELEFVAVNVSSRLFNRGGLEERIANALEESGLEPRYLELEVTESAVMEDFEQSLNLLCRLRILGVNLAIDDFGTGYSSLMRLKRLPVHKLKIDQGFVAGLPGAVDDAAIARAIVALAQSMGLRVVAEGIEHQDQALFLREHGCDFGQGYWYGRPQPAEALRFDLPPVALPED

As for `Nc1nc2c(ncn2[C@@H]2O[C@H](COP(=O)(O)OP(=O)(O)OP(=O)(O)O)[C@@H](O)[C@H]2O)c(=O)[nH]1` [GTP], the HDX-MS result is “the neighboring helices exhibited reduced HDX, substantiating GTP binding”.

For the origin of these results see PMC10874727, “The dual GGDEF/EAL domain enzyme PA0285 is a Pseudomonas species housekeeping phosphodiesterase regulating early attachment and biofilm architecture” (The Journal of Biological Chemistry, 2024).
